In US20250059164A1, “IRAK DEGRADERS AND USES THEREOF” (Kymera Therapeutics, Inc., priority 2023, published 2025):

Experiments:
IRAK4 = target: T1, IRAK4 (Homo sapiens, UniProt Q9NWZ3); test: IRAK4 MSD degradation in OCI-LY10; format: cell-based; details: OCI-LY10 cells, 24 hrs, Meso Scale Discovery
T1 construct: endogenous in cells; host or cells: OCI-LY10
T1 sequence (Q9NWZ3 1-460): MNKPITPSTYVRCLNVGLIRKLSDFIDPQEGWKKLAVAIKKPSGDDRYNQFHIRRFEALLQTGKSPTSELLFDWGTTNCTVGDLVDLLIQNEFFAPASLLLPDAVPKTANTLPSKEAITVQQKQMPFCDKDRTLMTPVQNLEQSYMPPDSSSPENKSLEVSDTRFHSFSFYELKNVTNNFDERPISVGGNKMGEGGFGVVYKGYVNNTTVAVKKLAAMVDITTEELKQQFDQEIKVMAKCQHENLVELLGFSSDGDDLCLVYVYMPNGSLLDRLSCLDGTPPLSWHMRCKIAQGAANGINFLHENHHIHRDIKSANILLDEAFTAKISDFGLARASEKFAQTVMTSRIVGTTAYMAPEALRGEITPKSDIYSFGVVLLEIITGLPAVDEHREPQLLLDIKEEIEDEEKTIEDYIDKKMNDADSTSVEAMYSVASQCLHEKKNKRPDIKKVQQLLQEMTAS
In short: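 Remaining IRAK4 protein measured by Meso Scale Discovery electrochemiluminescence sandwich assay on lysates of OCI-LY10 cells. Cells were exposed for 4 to 24 hours (37° C., 5% CO2) to eight 1:3-diluted concentrations starting at 1 to 10 μM. DC50 derived by three-parameter logistic fitting.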

[1] = Rodent pharmacokinetics (rat PK); format: in vivo; details: po, dosed intravenously or orally by gavage, plasma, read-out: F % (bioavailability)
Procedure: All studies related to handling, care, and treatment of rats in the study were performed according to the guidelines approved by the Institutional Animal Care and Use Committee (IACUC). All rats had access to food and water ad libitum. Rats were dosed intravenously or orally by gavage. Whole blood was collected from the jugular vein immediately prior to dosing and at 5 (intravenously administered drugs only), 15, and 30 min and 1, 2, 4, 8, and 24 h after drug administration. After sampling, whole blood was centrifuged at 4,000×g for 5 min at 4° C. to obtain plasma.
The letter codes for bioavailability (F %) include: A (≥5%) and B (≤5%).

SMILES | DC50 (IRAK4) [µM] | bioavailability [1] [%]
Cn1c(=O)n(C2CCC(=O)NC2=O)c2cccc(N3CCC4(CCN(C[C@H]5CC[C@H](n6cc7cc(NC(=O)c8cncc(C#N)c8)c(C(C)(C)O)cc7n6)CC5)CC4(F)F)CC3)c21 (mixture of isomers) [I-136, 5-Cyano-N-[2-[4-[[9-[1-(2,6-dioxo-3-piperidyl)-3-methyl-2-oxo-benzimidazol-4-yl]-5,5-difluoro-3,9-diazaspiro[5.5]undecan-3-yl]methyl]cyclohexyl]-6-(1-hydroxy-1-methyl-ethyl)indazol-5-yl]pyridine-3-carboxamide] | < 0.01 | ≤ 5
COc1ccc2c(c1N1CC3(CCN(C[C@H]4CC[C@H](n5cc6cc(NC(=O)c7cncc(C#N)c7)c(C(C)(C)O)cc6n5)CC4)CC3(F)F)C1)n(C)c(=O)n2C1CCC(=O)NC1=O (mixture of isomers) [I-227, 5-Cyano-N-[2-[4-[[2-[1-(2,6-dioxo-3-piperidyl)-5-methoxy-3-methyl-2-oxo-benzimidazol-4-yl]-5,5-difluoro-2,7-diazaspiro [3.5]nonan-7-yl]methyl]cyclohexyl]-6-(1-hydroxy-1-methyl-ethyl)indazol-5-yl]pyridine-3-carboxamide] | < 0.01 | ≤ 5
CN(C[C@H]1CC[C@H](n2cc(NC(=O)c3cnn4ccc(N5CCCC5)nc34)c(C(F)F)n2)CC1)[C@H]1CCN(c2cccc3c2n(C)c(=O)n3C2CCC(=O)NC2=O)C[C@H]1F (single isomer, unassigned) [I-21] | – | ≤ 5
CN(C[C@H]1CC[C@H](c2nc3cc(C(C)(C)O)c(NC(=O)c4cncc(C(F)(F)F)c4)cc3s2)CC1)[C@H]1CCN(c2cccc3c2n(C)c(=O)n3C2CCC(=O)NC2=O)C[C@@H]1F (single isomer, unassigned) [I-160] | – | ≥ 5
CN(C[C@H]1CC[C@H](c2nc3cc(C(C)(C)O)c(NC(=O)c4cccc(C(F)(F)F)c4)cc3s2)CC1)[C@@H]1CCN(c2cccc3c2n(C)c(=O)n3C2CCC(=O)NC2=O)C[C@H]1F (single isomer, unassigned) [I-176] | – | ≥ 5
CN(C[C@H]1CC[C@H](c2nc3cc(C(C)(C)O)c(NC(=O)c4cccc(C(F)(F)F)c4)cc3s2)CC1)[C@H]1CCN(c2cccc3c2n(C)c(=O)n3C2CCC(=O)NC2=O)C[C@@H]1F (single isomer, unassigned) [I-177] | – | ≥ 5
COc1cn2nc([C@H]3CC[C@H](CN(C)[C@H]4CCN(c5cccc6c5n(C)c(=O)n6C5CCC(=O)NC5=O)C[C@H]4F)CC3)cc2cc1NC(=O)c1cncc(C(F)(F)F)n1 (single isomer, unassigned) [I-219] | – | ≤ 5
Cn1c(=O)n(C2CCC(=O)NC2=O)c2cccc(N3CC[C@H](CN4CCN(C[C@H]5CC[C@H](n6cc(NC(=O)c7cnn8ccc(N9C[C@H]%10C[C@@H]9CO%10)nc78)c(C(F)F)n6)CC5)CC4)C3)c21 (stereo partly shown) [I-114] | – | ≤ 5
COc1cn2nc([C@H]3CC[C@H](CN4CC[C@@H](c5cccc6c5n(C)c(=O)n6C5CCC(=O)NC5=O)[C@H](F)C4)CC3)cc2cc1NC(=O)c1cncc(C(F)(F)F)n1 (stereo partly shown) [I-166] | – | ≤ 5
CN(C[C@H]1CC[C@H](c2nc3cc(C(C)(C)O)c(NC(=O)c4cccc(C(F)(F)F)n4)cc3o2)CC1)[C@H]1CCN(c2cccc3c2n(C)c(=O)n3C2CCC(=O)NC2=O)C[C@H]1F (stereo partly shown) [I-178] | – | ≥ 5
Cn1nc(C2CCC(=O)NC2=O)c2cccc(N3CCC4(CCN(C[C@H]5CC[C@H](n6cc7cc(NC(=O)c8cncc(C#N)c8)c(C(C)(C)O)cc7n6)CC5)CC4(F)F)CC3)c21 (stereo partly shown) [I-220] | – | ≤ 5
Cn1c(=O)n(C2CCC(=O)NC2=O)c2cccc(N3CC4(CCN(C[C@H]5CC[C@H](n6cc7cc(NC(=O)c8cncc(C(F)(F)F)n8)ncc7n6)CC5)CC4(F)F)C3)c21 (stereo partly shown) [I-221] | – | ≤ 5
Cn1c(=O)n(C2CCC(=O)NC2=O)c2cccc([C@H]3C[C@H](COC4CCN(C[C@H]5CC[C@H](n6cc(NC(=O)c7cnn8ccc(N9C[C@H]%10C[C@@H]9CO%10)nc78)c(C(F)F)n6)CC5)CC4)C3)c21 (stereo partly shown) [I-267] | – | ≤ 5
Cn1c(=O)n(C2CCC(=O)NC2=O)c2cccc(C#CCN3CCN(C[C@H]4CC[C@H](n5cc(NC(=O)c6cnn7ccc(N8C[C@H]9C[C@@H]8CO9)nc67)c(C(F)F)n5)CC4)[C@@H](C(F)(F)F)C3)c21 (stereo partly shown) [I-320] | 0.01 to 0.1 | –
Cn1c(=O)n(C2CCC(=O)NC2=O)c2cccc(C#CCN3CCN(C[C@H]4CC[C@H](n5cc(NC(=O)c6cnn7ccc(N8C[C@H]9C[C@@H]8CO9)nc67)c(C(F)F)n5)CC4)[C@H](C(F)(F)F)C3)c21 (stereo partly shown) [I-345] | 0.01 to 0.1 | –
Cn1c(=O)n(C2CCC(=O)NC2=O)c2cccc(N3CCN(C[C@H]4CC[C@H](n5cc6cc(NC(=O)c7cncc(C(F)(F)F)n7)ccc6n5)CC4)CC3=O)c21 (stereo partly shown) [I-350] | < 0.01 | –
Cn1c(=O)n(C2CCC(=O)NC2=O)c2cccc(N3CCC4(CCN(C[C@H]5CC[C@H](n6cc7cc(NC(=O)c8cncc(C(F)(F)F)n8)c(C(C)(C)O)cc7n6)CC5)CC4(F)F)CC3)c21 (stereo partly shown) [I-354] | < 0.01 | –
Cn1c(=O)n(C2CCC(=O)NC2=O)c2cccc(C3CCN(C[C@H]4CC[C@H](n5cc6cc(NC(=O)c7cncc(C(F)(F)F)n7)ccc6n5)CC4)C(=O)C3)c21 (stereo partly shown) [I-358] | < 0.01 | –
Cn1c(=O)n(C2CCC(=O)NC2=O)c2cccc(N3CCN(C[C@H]4CC[C@H](n5cc6cc(NC(=O)c7cncc(C(F)(F)F)n7)ccc6n5)CC4)[C@H](C(F)(F)F)C3)c21 (stereo partly shown) [I-368] | 0.01 to 0.1 | –
Cn1c(=O)n(C2CCC(=O)NC2=O)c2cccc(N3CCN(C[C@H]4CC[C@H](n5cc6cc(NC(=O)c7cncc(C(F)(F)F)n7)ccc6n5)CC4)[C@@H](C(F)(F)F)C3)c21 (stereo partly shown) [I-369] | 0.1 to 0.2 | –
CN1C(=O)CCC(n2c(=O)n(C)c3c([C@@H]4CCN(C[C@H]5CC[C@H](n6cc7cc(NC(=O)c8cncc(C(F)(F)F)n8)ccc7n6)CC5)CC4(F)F)cccc32)C1=O (stereo partly shown) [I-378] | > 0.2 | –
CN1C(=O)CCC(n2c(=O)n(C)c3c([C@@H]4CCN(C[C@H]5CC[C@H](n6cc7cc(NC(=O)c8cncc(C(F)(F)F)n8)ccc7n6)CC5)C[C@H]4F)cccc32)C1=O (stereo partly shown) [I-382] | > 0.2 | –
COc1ccc2c(c1N1CCC3(CCN(C[C@H]4CC[C@H](n5cc6cc(NC(=O)c7cncc(C#N)c7)c(C(C)(C)O)cc6n5)CC4)CC3(F)F)CC1)n(C)c(=O)n2C1CCC(=O)NC1=O (stereo partly shown) [I-397] | < 0.01 | –
COc1cc(C(=O)Nc2ccc3nn([C@H]4CC[C@H](CN5CCC6(CCN(c7cccc8c7n(C)c(=O)n8C7CCC(=O)NC7=O)CC6)C(F)(F)C5)CC4)cc3c2)nc(C(F)(F)F)c1 (stereo partly shown) [I-398] | > 0.2 | –
Cn1c(=O)n(C2CCC(=O)NC2=O)c2ccc(F)c(N3CCC4(CCN(C[C@H]5CC[C@H](n6cc7cc(NC(=O)c8cncc(C(F)(F)F)n8)ccc7n6)CC5)CC4(F)F)CC3)c21 (stereo partly shown) [I-399] | 0.01 to 0.1 | –
COc1cc(C(=O)Nc2ccc3nn([C@H]4CC[C@H](CN5CC[C@@H](c6cccc7c6n(C)c(=O)n7C6CCC(=O)NC6=O)C(F)(F)C5)CC4)cc3c2)nc(C(F)(F)F)c1 (stereo partly shown) [I-401] | > 0.2 | –
Cc1cc(C(=O)Nc2ccc3nn([C@H]4CC[C@H](CN5CC[C@@H](c6cccc7c6n(C)c(=O)n7C6CCC(=O)NC6=O)C(F)(F)C5)CC4)cc3c2)nc(C(F)(F)F)c1 (stereo partly shown) [I-402] | > 0.2 | –
Cc1cc(C(=O)Nc2ccc3nn([C@H]4CC[C@H](CN5CCC6(CCN(c7cccc8c7n(C)c(=O)n8C7CCC(=O)NC7=O)CC6)C(F)(F)C5)CC4)cc3c2)nc(C(F)(F)F)c1 (stereo partly shown) [I-403] | > 0.2 | –
Cn1c(=O)n(C2CCC(=O)NC2=O)c2cccc([C@@H]3CCN(C[C@H]4CC[C@H](n5cc6cc(NC(=O)c7cncc(C#N)c7)c(C(C)(C)O)cc6n5)CC4)CC3(F)F)c21 (stereo partly shown) [I-416] | < 0.01 | –
